Experimental data taken from PubChem BioAssay (NCI).
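96-well plates; 48 h exposure; 5 concentrations. Endpoints by linear interpolation between flanking doses. Not reached: highest tested concentration assigned. TGI denotes the concentration required for complete inhibition of growth.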

Assays:
Test in all cases: NCI anticancer screen, dose series, 48 h
[1] = test system: SK-MEL-2 melanoma
[2] = test system: IGROV1 ovarian
[3] = test system: K-562 leukemia
[4] = test system: CCRF-CEM leukemia
[5] = test system: SF-295 CNS
[6] = test system: NCI-H23 lung
[7] = test system: SF-539 CNS
[8] = test system: UACC-62 melanoma
[9] = test system: MOLT-4 leukemia
[10] = test system: CAKI-1 renal
[11] = test system: A498 renal
[12] = test system: MCF7 breast
[13] = test system: SN12C renal
[14] = test system: SF-268 CNS
[15] = test system: SNB-75 CNS
[16] = test system: ACHN renal
[17] = test system: MALME-3M melanoma
[18] = test system: HCT-116 colon
[19] = test system: LOX IMVI melanoma
[20] = test system: 786-0 renal
[21] = test system: T-47D breast
[22] = test system: SW-620 colon
[23] = test system: NCI-H460 lung
[24] = test system: DU-145 prostate
[25] = test system: MDA-MB-435
[26] = test system: HCT-15 colon
[27] = test system: RXF 393 renal
[28] = test system: HL-60(TB) leukemia
[29] = test system: U251 CNS
[30] = test system: UACC-257 melanoma
[31] = test system: KM12 colon
[32] = test system: PC-3 prostate
[33] = test system: BT-549 breast
[34] = test system: EKVX NSCLC
[35] = test system: M14 melanoma
[36] = test system: UO-31 renal
[37] = test system: SK-MEL-5 melanoma
[38] = test system: RPMI-8226 leukemia
[39] = test system: SNB-19 CNS
[40] = test system: TK-10 renal
[41] = test system: SK-MEL-28 melanoma
[42] = test system: OVCAR-5 ovarian
[43] = test system: OVCAR-3 ovarian
[44] = test system: HS 578T breast
[45] = test system: COLO 205 colon
[46] = test system: OVCAR-8 ovarian
[47] = test system: NCI/ADR-RES ovarian
[48] = test system: MDA-N
[49] = test system: MDA-MB-231 breast
[50] = test system: SK-OV-3 ovarian
[51] = test system: NCI-H226 lung
[52] = test system: HT29 colon
[53] = test system: HCC-2998 colon
[54] = test system: A549 NSCLC
[55] = test system: HOP-92 NSCLC
[56] = test system: OVCAR-4 ovarian
[57] = test system: HOP-62 NSCLC
[58] = test system: NCI-H522 lung
[59] = test system: SR leukemia

With `COc1ccc(C2OC(N)=C(C#N)C3=C2CCCC3C)cc1OC` (centres undefined) the TGI [1] was greater than 100 µM, the TGI [2] was greater than 100 µM and the TGI [3] was greater than 100 µM. For the same molecule, the TGI [4] was greater than 100 µM, the TGI [5] was greater than 100 µM and the TGI [6] was greater than 100 µM. The TGI [7] was greater than 100 µM, the TGI [8] was greater than 100 µM and the TGI [9] was greater than 100 µM. It also gave a TGI [10] greater than 100 µM, a TGI [11] greater than 100 µM and a TGI [12] greater than 100 µM. The TGI [13] was greater than 100 µM, the TGI [14] was greater than 100 µM and the TGI [15] was greater than 100 µM. The TGI [16] was greater than 100 µM, the TGI [17] was greater than 100 µM and the TGI [18] was greater than 100 µM. It also gave a TGI [19] greater than 100 µM, a TGI [20] greater than 100 µM and a TGI [21] greater than 100 µM. The TGI [22] was greater than 100 µM, the TGI [23] was greater than 100 µM and the TGI [24] was greater than 100 µM. For the same molecule, the TGI [25] was greater than 100 µM, the TGI [26] was greater than 100 µM and the TGI [27] was greater than 100 µM. For the same molecule, the TGI [28] was greater than 100 µM, the TGI [29] was greater than 100 µM and the TGI [30] was greater than 100 µM. It also gave a TGI [31] greater than 100 µM, a TGI [32] greater than 100 µM and a TGI [33] greater than 100 µM. The TGI [34] was greater than 100 µM, the TGI [35] was greater than 100 µM and the TGI [36] was greater than 100 µM. For the same molecule, the TGI [37] was greater than 100 µM, the TGI [38] was greater than 100 µM and the TGI [39] was greater than 100 µM. The TGI [40] was greater than 100 µM, the TGI [41] was greater than 100 µM and the TGI [42] was greater than 100 µM. For the same molecule, the TGI [43] was greater than 100 µM, the TGI [44] was greater than 100 µM and the TGI [45] was greater than 100 µM. The TGI [46] was greater than 100 µM, the TGI [47] was greater than 100 µM and the TGI [48] was greater than 100 µM. For the same molecule, the TGI [49] was greater than 100 µM, the TGI [50] was greater than 100 µM and the TGI [51] was greater than 100 µM. It also gave a TGI [52] greater than 100 µM.
Work on `CCOC(=O)CO/N=C1/C(c2c(O)[nH]c3ccccc23)=Nc2ccccc21` yielded a TGI [53] greater than 100 µM, a TGI [54] greater than 100 µM and a TGI [1] greater than 100 µM. The TGI [2] was 79.2 µM, the TGI [3] was greater than 100 µM and the TGI [4] was greater than 100 µM. For the same molecule, the TGI [5] was greater than 100 µM, the TGI [6] was greater than 100 µM and the TGI [7] was greater than 100 µM. The TGI [8] was greater than 100 µM, the TGI [9] was 78.5 µM and the TGI [10] was greater than 100 µM. The TGI [11] was 38.2 µM, the TGI [12] was greater than 100 µM and the TGI [13] was greater than 100 µM. For the same molecule, the TGI [14] was greater than 100 µM, the TGI [15] was 9.88 µM and the TGI [16] was greater than 100 µM. It also gave a TGI [17] greater than 100 µM, a TGI [18] greater than 100 µM and a TGI [19] greater than 100 µM. The TGI [20] was greater than 100 µM, the TGI [21] was 45.8 µM and the TGI [22] was greater than 100 µM. The TGI [23] was greater than 100 µM, the TGI [24] was greater than 100 µM and the TGI [25] was greater than 100 µM. The TGI [26] was greater than 100 µM, the TGI [27] was 29.2 µM and the TGI [55] was 63.3 µM. The TGI [56] was 16.5 µM, the TGI [28] was greater than 100 µM and the TGI [29] was 66.1 µM. For the same molecule, the TGI [30] was greater than 100 µM, the TGI [31] was greater than 100 µM and the TGI [32] was greater than 100 µM. The TGI [33] was greater than 100 µM, the TGI [34] was greater than 100 µM and the TGI [35] was greater than 100 µM. For the same molecule, the TGI [36] was greater than 100 µM, the TGI [37] was greater than 100 µM and the TGI [57] was 46 µM. It also gave a TGI [58] greater than 100 µM, a TGI [38] greater than 100 µM and a TGI [39] of 89.4 µM. The TGI [40] was greater than 100 µM, the TGI [41] was greater than 100 µM and the TGI [42] was greater than 100 µM. For the same molecule, the TGI [43] was 55 µM, the TGI [44] was greater than 100 µM and the TGI [45] was greater than 100 µM. The TGI [46] was greater than 100 µM, the TGI [47] was greater than 100 µM and the TGI [48] was greater than 100 µM. For the same molecule, the TGI [49] was 43.3 µM, the TGI [50] was 49.2 µM and the TGI [52] was greater than 100 µM.
`Cc1c(O)c(OC2OC(CO)C(O)C(O)C2O)cc2c1CC[C@@H]1C2(C)C(=O)C[C@]2(C)[C@@H]([C@@](C)(O)C(=O)CCC(C)(C)O)[C@H](O)C[C@@]12C` (some centres undefined) gave a TGI [53] greater than 100 µM, a TGI [54] greater than 100 µM and a TGI [1] greater than 100 µM. For the same molecule, the TGI [2] was greater than 100 µM, the TGI [3] was greater than 100 µM and the TGI [4] was greater than 100 µM. It also gave a TGI [5] greater than 100 µM, a TGI [6] greater than 100 µM and a TGI [7] greater than 100 µM. The TGI [8] was greater than 100 µM, the TGI [9] was greater than 100 µM and the TGI [10] was greater than 100 µM. For the same molecule, the TGI [11] was greater than 100 µM, the TGI [12] was greater than 100 µM and the TGI [13] was greater than 100 µM. It also gave a TGI [14] greater than 100 µM, a TGI [15] greater than 100 µM and a TGI [16] greater than 100 µM. For the same molecule, the TGI [17] was greater than 100 µM, the TGI [18] was greater than 100 µM and the TGI [20] was greater than 100 µM. The TGI [21] was greater than 100 µM, the TGI [22] was greater than 100 µM and the TGI [23] was greater than 100 µM. For the same molecule, the TGI [59] was greater than 100 µM, the TGI [24] was greater than 100 µM and the TGI [25] was greater than 100 µM. The TGI [26] was greater than 100 µM, the TGI [27] was greater than 100 µM and the TGI [55] was greater than 100 µM. For the same molecule, the TGI [56] was greater than 100 µM, the TGI [29] was greater than 100 µM and the TGI [30] was greater than 100 µM. For the same molecule, the TGI [31] was greater than 100 µM, the TGI [32] was greater than 100 µM and the TGI [33] was greater than 100 µM. The TGI [34] was greater than 100 µM, the TGI [35] was greater than 100 µM and the TGI [36] was greater than 100 µM. It also gave a TGI [37] greater than 100 µM, a TGI [57] greater than 100 µM and a TGI [58] greater than 100 µM. The TGI [39] was greater than 100 µM, the TGI [40] was greater than 100 µM and the TGI [41] was greater than 100 µM. For the same molecule, the TGI [42] was greater than 100 µM, the TGI [43] was greater than 100 µM and the TGI [45] was greater than 100 µM. For the same molecule, the TGI [46] was greater than 100 µM, the TGI [47] was greater than 100 µM and the TGI [48] was greater than 100 µM. The TGI [49] was greater than 100 µM, the TGI [50] was greater than 100 µM and the TGI [51] was greater than 100 µM. For the same molecule, the TGI [52] was greater than 100 µM.
For `COc1ccc(CC2c3cc(OC)c(OC)cc3CC[N+]2(C)C)cc1OC` (centres undefined), the TGI [53] was greater than 100 µM, the TGI [54] was greater than 100 µM and the TGI [1] was greater than 100 µM. For the same molecule, the TGI [2] was greater than 100 µM, the TGI [3] was greater than 100 µM and the TGI [4] was greater than 100 µM. The TGI [5] was greater than 100 µM, the TGI [6] was greater than 100 µM and the TGI [7] was greater than 100 µM. It also gave a TGI [8] greater than 100 µM, a TGI [9] greater than 100 µM and a TGI [10] greater than 100 µM. It also gave a TGI [11] greater than 100 µM, a TGI [12] greater than 100 µM and a TGI [13] greater than 100 µM. It also gave a TGI [14] greater than 100 µM, a TGI [15] greater than 100 µM and a TGI [16] greater than 100 µM. For the same molecule, the TGI [17] was greater than 100 µM, the TGI [18] was greater than 100 µM and the TGI [19] was greater than 100 µM. The TGI [20] was greater than 100 µM, the TGI [21] was greater than 100 µM and the TGI [22] was greater than 100 µM. For the same molecule, the TGI [23] was greater than 100 µM, the TGI [24] was greater than 100 µM and the TGI [25] was greater than 100 µM. For the same molecule, the TGI [26] was greater than 100 µM, the TGI [55] was greater than 100 µM and the TGI [56] was greater than 100 µM. It also gave a TGI [28] greater than 100 µM, a TGI [29] greater than 100 µM and a TGI [30] greater than 100 µM. The TGI [31] was greater than 100 µM, the TGI [32] was greater than 100 µM and the TGI [33] was greater than 100 µM. For the same molecule, the TGI [34] was greater than 100 µM, the TGI [36] was greater than 100 µM and the TGI [37] was greater than 100 µM. It also gave a TGI [58] greater than 100 µM, a TGI [38] greater than 100 µM and a TGI [39] greater than 100 µM. It also gave a TGI [40] greater than 100 µM, a TGI [41] greater than 100 µM and a TGI [42] greater than 100 µM. For the same molecule, the TGI [43] was greater than 100 µM, the TGI [44] was greater than 100 µM and the TGI [45] was greater than 100 µM. It also gave a TGI [46] greater than 100 µM, a TGI [47] greater than 100 µM and a TGI [48] greater than 100 µM. It also gave a TGI [49] greater than 100 µM, a TGI [50] greater than 100 µM and a TGI [51] greater than 100 µM. The TGI [52] was greater than 100 µM.
